Several values for one entry are separate records, joined by “and”; a condition that tells them apart may be missing. Equal values may be shown once. Inconclusive results and toxic doses are left out. Rule as the data show it: active = T/C of 150% or more; inactive = T/C below 125%.
Tested on: L1210 leukemia ip in BDF1 mice, survival T/C
Assay: NCI In Vivo Anticancer Drug Screen. Data for tumor model L1210 Leukemia (intraperitoneal) in B6D2F1 (BDF1) mice
Details: endpoint: mean survival time, higher = longer survival
In short: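 Tumor was transplanted into mice, which were then dosed with test compound or vehicle alone. Survival was recorded for each group, and the treated figure was expressed relative to the control figure.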

[1] = dose: 100.0 mg/kg/injection, schedule: Q01DX009 (ip), vehicle: Klucel (hydroxypropylcellulose) (HPC)
[2] = dose: 200.0 mg/kg/injection, schedule: Q01DX009 (ip), vehicle: Klucel (hydroxypropylcellulose) (HPC)
[3] = dose: 400.0 mg/kg/injection, schedule: Q01DX009 (ip), vehicle: Klucel (hydroxypropylcellulose) (HPC)
[4] = dose: 50.0 mg/kg/injection, schedule: Q01DX001 (ip), vehicle: saline
[5] = dose: 100.0 mg/kg/injection, schedule: Q01DX001 (ip), vehicle: saline
[6] = dose: 200.0 mg/kg/injection, schedule: Q01DX001 (ip), vehicle: saline
[7] = dose: 400.0 mg/kg/injection, schedule: Q01DX001 (ip), vehicle: saline
[8] = dose: 100.0 mg/kg/injection, schedule: Q01DX005 (ip), vehicle: saline
[9] = dose: 100.0 mg/kg/injection, schedule: Q04DX003 (ip), vehicle: Klucel (hydroxypropylcellulose) (HPC)
[10] = dose: 200.0 mg/kg/injection, schedule: Q04DX003 (ip), vehicle: Klucel (hydroxypropylcellulose) (HPC)
[11] = dose: 400.0 mg/kg/injection, schedule: Q04DX003 (ip), vehicle: Klucel (hydroxypropylcellulose) (HPC)

Measured: T/C

O=C(N/N=C/c1ccc(Cl)cc1)c1ccccc1NC(=O)C1CC1
inactive: [1] 97 % of control | [2] 87 % of control | [3] 103 % of control

CC(C)(C)NC(=O)NCc1cccc2ccccc12
inactive: dose: 100.0 mg/kg/injection, schedule: Q01DX009 (ip), vehicle: other 103 % of control | dose: 200.0 mg/kg/injection, schedule: Q01DX009 (ip), vehicle: other 95 % of control | dose: 400.0 mg/kg/injection, schedule: Q01DX009 (ip), vehicle: other 90 % of control

COc1cc2[nH]c(C)c(CCN3CCN(c4ccccc4)CC3)c2cc1OC
inactive: dose: 3.12 mg/kg/injection, schedule: Q01DX009 (ip), vehicle: Klucel (hydroxypropylcellulose) (HPC) 104 % of control | dose: 6.25 mg/kg/injection, schedule: Q01DX009 (ip), vehicle: Klucel (hydroxypropylcellulose) (HPC) 108 % of control | dose: 12.5 mg/kg/injection, schedule: Q01DX009 (ip), vehicle: Klucel (hydroxypropylcellulose) (HPC) 96 % of control | dose: 25.0 mg/kg/injection, schedule: Q01DX009 (ip), vehicle: Klucel (hydroxypropylcellulose) (HPC) 105 % of control | dose: 25.0 mg/kg/injection, schedule: Q04DX003 (ip), vehicle: Klucel (hydroxypropylcellulose) (HPC) 106 % of control | dose: 50.0 mg/kg/injection, schedule: Q04DX003 (ip), vehicle: Klucel (hydroxypropylcellulose) (HPC) 106 % of control

O=C1NC(=O)C(c2cccc(O)c2)N1 (stereo unspecified)
inactive: [4] 100 % of control | [5] 100 % of control | [6] 100 % of control | [7] 100 % of control

CC(C)CSC(C(O)C(O)C(O)CO)n1ccc(N)nc1=O (stereo unspecified)
inactive: [8] 90 % of control | dose: 200.0 mg/kg/injection, schedule: Q01DX005 (ip), vehicle: saline 98 % of control

C/C(=N/N=C(N)N)c1ccc(/C(C)=N/N=C(N)N)cc1
inactive: dose: 3.75 mg/kg/injection, schedule: Q01DX Z (ip), vehicle: saline 95 % of control | dose: 7.5 mg/kg/injection, schedule: Q01DX Z (ip), vehicle: carboxymethylcellulose (CMC) 100 % of control | dose: 7.5 mg/kg/injection, schedule: Q01DX Z (ip), vehicle: saline 101 % of control | dose: 15.0 mg/kg/injection, schedule: Q01DX Z (ip), vehicle: carboxymethylcellulose (CMC) 107 % of control | dose: 15.0 mg/kg/injection, schedule: Q01DX Z (ip), vehicle: saline 110 % of control and 112 % of control | dose: 30.0 mg/kg/injection, schedule: Q01DX Z (ip), vehicle: carboxymethylcellulose (CMC) 117 % of control | dose: 30.0 mg/kg/injection, schedule: Q01DX Z (ip), vehicle: saline 112 % of control | dose: 480.0 mg/kg/injection, schedule: Q01DX009 (oral), vehicle: saline 93 % of control | dose: 960.0 mg/kg/injection, schedule: Q01DX009 (oral), vehicle: saline 93 % of control

O=NN(CCCl)C(=O)C1CCC(C(=O)N(CCCl)N=O)CC1 (stereo unspecified)
inactive: dose: 0.25 mg/kg/injection, schedule: Q01DX001 (ip), vehicle: carboxymethylcellulose (CMC) 108 % of control | dose: 0.5 mg/kg/injection, schedule: Q01DX001 (ip), vehicle: carboxymethylcellulose (CMC) 117 % of control | dose: 10.0 mg/kg/injection, schedule: Q01DX001 (ip), vehicle: carboxymethylcellulose (CMC) 124 % of control | dose: 15.0 mg/kg/injection, schedule: Q01DX001 (ip), vehicle: carboxymethylcellulose (CMC) 123 % of control | dose: 30.0 mg/kg/injection, schedule: Q01DX001 (ip), vehicle: carboxymethylcellulose (CMC) 118 % of control | dose: 62.0 mg/kg/injection, schedule: Q01DX001 (ip), vehicle: carboxymethylcellulose (CMC) 87 % of control

COc1ccc(/C=C2\CN(CCCC(=O)O)C(=O)C2=O)cc1
inactive: [5] 103 % of control | dose: 100.0 mg/kg/injection, schedule: Q04DX003 (ip), vehicle: saline 100 % of control | [6] 98 % of control | dose: 200.0 mg/kg/injection, schedule: Q04DX003 (ip), vehicle: saline 100 % of control | [7] 100 % of control | dose: 400.0 mg/kg/injection, schedule: Q04DX003 (ip), vehicle: saline 100 % of control

O=c1oc2ccccc2c(O)c1C(C/C(=N/O)c1ccccc1)c1ccccc1 (stereo unspecified)
inactive: dose: 100.0 mg/kg/injection, schedule: Q04DX003 (ip), vehicle: saline with Tween-80 96 % of control | dose: 200.0 mg/kg/injection, schedule: Q04DX003 (ip), vehicle: saline with Tween-80 91 % of control | dose: 400.0 mg/kg/injection, schedule: Q04DX003 (ip), vehicle: saline with Tween-80 88 % of control

O=C1CC(c2ccccc2)(c2ccccc2)c2ccccc21
inactive: dose: 25.6 mg/kg/injection, schedule: Q04DX002 (ip), vehicle: saline with Tween-80 98 % of control | dose: 64.0 mg/kg/injection, schedule: Q04DX002 (ip), vehicle: saline with Tween-80 102 % of control | dose: 160.0 mg/kg/injection, schedule: Q04DX002 (ip), vehicle: saline with Tween-80 91 % of control | dose: 400.0 mg/kg/injection, schedule: Q04DX002 (ip), vehicle: saline with Tween-80 96 % of control

CN(C)c1ccc(/C=C/c2ccc(N(C)C)cc2)cc1
inactive: [1] 98 % of control | [9] 98 % of control | [2] 102 % of control | [10] 94 % of control | [3] 93 % of control | [11] 100 % of control

CCCCOC(=O)c1cccc2c1-c1ccccc1C2=O
inactive: dose: 100.0 mg/kg/injection, schedule: Q01DX001 (ip), vehicle: other 86 % of control | dose: 200.0 mg/kg/injection, schedule: Q01DX001 (ip), vehicle: other 93 % of control | dose: 400.0 mg/kg/injection, schedule: Q01DX001 (ip), vehicle: other 91 % of control

CN(CCc1cn(C2OC(CO)C(O)C(O)C2O)cn1)C(=O)/C=C/c1ccccc1 (stereo unspecified)
inactive: [8] 112 % of control

Oc1[nH]c(=S)sc1C1=c2ccccc2=NCC1
inactive: dose: 44.4 mg/kg/injection, schedule: Q01DX001 (ip), vehicle: carboxymethylcellulose (CMC) 93 % of control and 94 % of control | dose: 66.7 mg/kg/injection, schedule: Q01DX001 (ip), vehicle: carboxymethylcellulose (CMC) 96 % of control and 106 % of control | dose: 100.0 mg/kg/injection, schedule: Q01DX001 (ip), vehicle: carboxymethylcellulose (CMC) 98 % of control and 107 % of control | dose: 150.0 mg/kg/injection, schedule: Q01DX001 (ip), vehicle: carboxymethylcellulose (CMC) 98 % of control and 100 % of control

O=C(O)c1ccc(OCCOc2ccccc2)cc1
inactive: dose: 100.0 mg/kg/injection, schedule: Q01DX009 (ip), vehicle: saline sonified 90 % of control | dose: 200.0 mg/kg/injection, schedule: Q01DX009 (ip), vehicle: saline sonified 95 % of control | dose: 200.0 mg/kg/injection, schedule: Q04DX003 (ip), vehicle: saline sonified 100 % of control | dose: 400.0 mg/kg/injection, schedule: Q01DX009 (ip), vehicle: saline sonified 93 % of control | dose: 400.0 mg/kg/injection, schedule: Q04DX003 (ip), vehicle: saline sonified 108 % of control

CN/C=C1\CCOC1=O
inactive: dose: 100.0 mg/kg/injection, schedule: Q04DX002 (ip), vehicle: saline 124 % of control | dose: 200.0 mg/kg/injection, schedule: Q04DX002 (ip), vehicle: saline 101 % of control | dose: 400.0 mg/kg/injection, schedule: Q04DX002 (ip), vehicle: saline 90 % of control

O=C(CCCC(=O)NNC(=S)NC1CCCCC1)NNC(=S)NC1CCCCC1
inactive: [4] 96 % of control | [5] 96 % of control | [6] 93 % of control

COc1cc(N(C)C)c(OC)cc1C=O
inactive: [1] 103 % of control | [9] 97 % of control | [2] 105 % of control | [10] 95 % of control | [11] 95 % of control

CC(C)=NNC(=O)Nc1ccc(C)c(Cl)c1
inactive: dose: 50.0 mg/kg/injection, schedule: Q01DX001 (ip), vehicle: Klucel (hydroxypropylcellulose) (HPC) 90 % of control | dose: 100.0 mg/kg/injection, schedule: Q01DX001 (ip), vehicle: Klucel (hydroxypropylcellulose) (HPC) 103 % of control and 90 % of control | [1] 102 % of control | dose: 100.0 mg/kg/injection, schedule: Q04DX002 (ip), vehicle: Klucel (hydroxypropylcellulose) (HPC) 101 % of control and 86 % of control | dose: 200.0 mg/kg/injection, schedule: Q01DX001 (ip), vehicle: Klucel (hydroxypropylcellulose) (HPC) 92 % of control | [2] 93 % of control | dose: 200.0 mg/kg/injection, schedule: Q04DX002 (ip), vehicle: Klucel (hydroxypropylcellulose) (HPC) 98 % of control and 100 % of control | dose: 400.0 mg/kg/injection, schedule: Q01DX001 (ip), vehicle: Klucel (hydroxypropylcellulose) (HPC) 87 % of control | [3] 86 % of control | dose: 400.0 mg/kg/injection, schedule: Q04DX002 (ip), vehicle: Klucel (hydroxypropylcellulose) (HPC) 95 % of control and 89 % of control

Reference: PubChem BioAssay AID248 (DTP/NCI, 2004)
